# Legend:
# [1] = system: latent HIV-based retroviral vector in cell line; assay: Screen of small molecule library on cell line containing a latent HIV-based retroviral vector, GFP expression; conditions: different concentrations; FIG. 7
# Source text: We screened a library of 6,000 small molecules (library purchased from Chembridge, San Diego) using one of the cell lines containing a latent HIV-based retroviral vector. Viral expression was monitored by GFP expression, as described above. […] The results of a typical induction experiment in which we measured CFP expression in response to different concentrations of the two small molecules (Hit 1 and Hit2) are shown in FIG. 7. The structures of three representative active agents are shown below.
# [2] = system: latent HIV promoter (LTR-Tat-IRES-GFP vector) in Jurkat-derived cells; assay: Reactivation of latent LTR-Tat-IRES-GFP vector in Jurkat cells/clones, GFP by flow cytometry; assay type: cell-based; conditions: for ability to reactivate latent HIV expression (GFP-positive cells and mean fluorescence intensity): clones 82, A1, A7, A10, 10 nM TPA, 10 ng/ml TNF-α, 5 μg/ml PHA, 5 μg/ml anti-CD3, 400 nM TSA, 5 μM aza-dC 48 h
# Experimental: To obtain a random library of clones containing the vector LTR-Tat-IRES-GFP integrated, Jurkat cells were infected at an MOI (multiplicity of infection) of 0.1 followed by serial dilution and plating in 96-well plates. Individual clones obtained after 3 weeks were analyzed by flow cytometry for GFP expression. For the purification of latently infected cells, Jurkat cells were infected with the LTR-Tat-IRES-GFP viral stock at an MOI of 0.1 and kept in culture for at least 96 h. GFP-negative (GFP^−) and GFP-positive (GFP^+) cells were separated by fluorescence activated cell sorting (FACS) and further cultured. One week later, GFP^− cells were incubated with 10 nM TPA or 10 ng/ml TNF-α for 17 h.
# Jurkat cells were grown in RPMI 1640 medium (Mediatech Cellgro, Herndon, Va.) supplemented with 10% fetal bovine serum, 100 U/ml of penicillin, 100 μg/ml of streptomycin, and 2 mM L-glutamine at 37° C. under a 95% air/5% CO2 atmosphere. Peripheral blood mononuclear cells (PBMCs) were cultivated in the same medium supplemented with 100 U/ml human interleukin (hIL)-2 and were phytohemagglutinin (PHA)-stimulated (5 μg/ml) once every two weeks. 293T cells were grown under the same conditions as Jurkat cells in Dulbecco's modification of Eagle's medium (Mediatech Cellgro, Herndon, Va.). 293T cells were routinely transfected with calcium phosphate. Jurkat cells (10^7 cells/0.4 ml serum-free medium) were electroporated in 0.4-cm gap cuvettes at 250 V and […] (Gene Pulser II, Biorad, Hercules, Calif.). Plasmid DNA for transfections was purified with the Qiagen Plasmid Maxi kit, followed by phenol extraction and ethanol precipitation. To test the HIV promoter inducibility, Jurkat-derived clones were incubated for 17 h with 10 nM tetradecanoyl phorbol acetate (TPA), 10 ng/ml TNF-α, 5 μg/ml PHA, 1 μM ionomycin, 5 μg/ml anti-CD3 antibody, 400 nM Trichostatin A (TSA). Incubations with 5 μM aza-dC lasted for 48 h.
# (§1) Cells were washed in PBS and resuspended in PBS containing 1% paraformaldehyde. GFP fluorescence was measured with a FACScalibur machine (Becton Dickinson, San Jose, Calif.). A two narameter analysis to distinguish GFP-derived fluorescence from background fluorescence was used: CFP was measured in FL1 and cellular autofluorescence was monitored in FL2. Electronic compensation was applied during analysis. Analysis was gated on live cells according to forward and side scatter. A gate (R2) containing GFP-positive cells was drawn compared to an uninfected control, and the data shown refer to the percentage of cells in R2 or mean fluorescence intensity (MFI) of those cells. Results shown throughout the manuscript are representative three independent experiments, except when libraries of clones were analyzed. Cell sorting was carried out with a FACSVantage (Becton Dickinson, San Jose, Calif.).
# [3] = system: latent full-length HIV provirus (HIV-R7/E-/GFP) in Jurkat cells; assay: GFP expression in Jurkat cells/clones latently infected with full-length HIV-R7/E-/GFP, flow cytometry; assay type: cell-based; conditions: for GFP Signal (MFI) / GFP-Positive (%): + TNF-α
# Experimental: as §1
# The HIV molecular clone (HIV-R7/E^−1/GFP) was constructed by introducing a frameshift mutation in the env gene (by filling-in NdeI site with T4 polymerase) in the backbone of HIV-R7/3/GCF. Bieniasz and Cullen (2000) J. Virol. 74:9868-9877.
# To confirm that HIV Latency can be established in the context of a full length provirus, we used a recombinant HIV molecular clone containing the GFP open reading frame in place of the Nef gene (Bieniasz and Cullen (2000) J. Virol. 74:9868-9877) (HIV-R7/E^−/GFP) (FIG. 5A). To restrict our analysis to a single infection cycle, the env gene was suppressed by introduction of a frameshift mutation. […]. We infected a culture of the lymphocytic cell line Jurkat with viral particles containing this HIV genome and used differential fluorescence-activated cell sorting based on GFP expression to isolate GFP-negative cells by FACS 4 days after infection (FIG. 5B). Based on our previous experiments, we predicted that this population harbored both uninfected cells and cells with transcriptionally silenced proviruses. To activate HIV expression, we treated this population with TNF-α and observed that a small fraction of the cell population (1.9%) became positive. These activated cells were purified by FACS based on GFP expression levels (FIG. 5B). These cells were both grown as a group and individually sorted for further characterization.
# FIG. 5. Establishment of latently infected cell lines with a full-length HIV provirus. (A) genome organization of a molecular clone of HIV encoding GFP and containing a frameshift mutation in env. (B) Schematic representation of protocol for enrichment of latently-infected cells after infection of Jurkat cells with HIV-R7/E^−/GFP) (see text for detail). (C) Clonal cell lines isolated using the procedure described above were analyzed for GFP expression under basal and stimulated conditions (24 hr treatment with TNF-α).
# [4] = system: latent full-length HIV provirus (HIV-R7/E-/GFP) in Jurkat clones; assay: HIV-specific p24 in culture supernatants of latent HIV-R7/E-/GFP clones; assay type: cell-based; conditions: culture supernatant; for p24 (pg/ml): + TNF-α
# Source text: When the culture supernatants of the same clones were examined for HIV-specific p24 expression, no or low picogram amounts could be detected under basal conditions (Table I).
# [5] = system: latent full-length HIV provirus (HIV-R7/E-/GFP) in Jurkat clones; assay: Western blotting of HIV-specific proteins in latent HIV-R7/E-/GFP clones; assay type: cell-based; conditions: several clones; particularly gag p55 precursor
# Source text: Levels of viral mRNA after activation were similar to those measured after a productive HIV infection (compare clones F11 and G10 with NL4-3, FIG. 1C).
# [6] = system: HIV transcription in latent cell lines; assay: HIV-specific mRNA measurement by TaqMan PCR in latent cell lines; assay type: cell-based; conditions: clone H2; +TNF-α
# Experimental: RNA was isolated using TRIzol (Invitrogen) followed by digestion with RQ1 DNase (Promega). First strand cDNA was synthesized using Superscript II (Invitrogen). Taqman PCR was performed on an ABIprism 7700 detector using the following primer/probe set: primer 1: 5′-[…]-3′ (SEQ ID NO:21); primer 2: 5′-[…]-3′ (SEQ ID NO:22); probe 5′-CTGGTAACTAGAGATCCC-3′ (SEQ LD NO:23). The GAPDH primer/probe set was purchased from Applied Biosystems.
# FIG. 1A-C. Enrichment and purification of HIV-latently infected cells by FACS. (A) A schematic representation of our enrichment protocol is shown. See text for details. The percentage of GFP-positive cells obtained after infection (4%) or after TNF-α treatment of GFP-cells (0.06%) is shown. Similar data were obtained with TPA. (B) Clonal cell lines isolated using the procedure described above were analyzed for CFP expression under basal and stimulated conditions (24 hr treatment with TNF-α). (C) mRNA levels were measured for HIV and for GAPDH using TaqMan PCR in untreated and TNF-α-treated cell lines. Results are expressed as a percentage of mRNA levels measured in Jurkat cells acutely infected with HIVNL4-3 (day 6 post-infection). Clone A72 is infected with an LTR-CFP construct (Jordan et al. (2001, supra), clone H2 is infected with the LTR-Tat-IRS-GFP vector while clones F11 and G10 are infected with HIV-R7/E^−/GFP.
compound,measurement,setting,value
CC1(C)Cc2ccccc2C(NNC(=O)c2ccccn2)=N1 [Hit2],induction of HIV expression as measured by increased GFP expression,[1],reproducibly lead to an induction of HIV expression
COc1cc(/C=N/NC(=O)c2cc(-c3ccccc3)n[nH]2)cc(OC)c1O [Hit 1],induction of HIV expression as measured by increased GFP expression,[1],reproducibly lead to an induction of HIV expression
CC(/C=C/C(=O)NO)=C\[C@@H](C)C(=O)c1ccc(N(C)C)cc1 [Trichostatin A],ability to reactivate latent HIV expression (GFP-positive cells and mean fluorescence intensity),[2],activated expression but to a lesser extent than NT-κB activators and in only some cell lines
"Nc1ncn([C@H]2C[C@H](O)[C@@H](CO)O2)c(=O)n1 [aza-dC, 5-axa-2-deoxycytidine]",ability to reactivate latent HIV expression (GFP-positive cells and mean fluorescence intensity),[2],little effect
phytohemagglutinin [PHA],ability to reactivate latent HIV expression (GFP-positive cells and mean fluorescence intensity),[2],induced HIV expression
tetradecanoyl phorbol acetate [TPA],GFP expression of individual latent clones after treatment,[2]; clonal cell lines 4 weeks after isolation,all clones were activated
same,ability to reactivate latent HIV expression (GFP-positive cells and mean fluorescence intensity),[2],strongest inducer tested
tumor necrosis factor alpha [TNF-α],GFP Signal (MFI),[3]; Clone 6.3,135 ± 43 MFI
same,GFP-Positive (%),[3]; Clone 6.3,27 ± 9%
same,GFP Signal (MFI),[3]; Clone 8.4,488 ± 74 MFI
same,GFP-Positive (%),[3]; Clone 8.4,77 ± 6%
same,GFP Signal (MFI),[3]; Clone 9.2,522 ± 61 MFI
same,GFP-Positive (%),[3]; Clone 9.2,75 ± 7%
same,GFP Signal (MFI),[3]; Clone 10.6,645 ± 45 MFI
same,GFP-Positive (%),[3]; Clone 10.6,96 ± 1%
same,GFP Signal (MFI),[3]; Clone 15.4,188 ± 34 MFI
same,GFP-Positive (%),[3]; Clone 15.4,46 ± 6%
same,fraction of the cell population that became GFP positive,"[3]; Jurkat infected with HIV-R7/E-/GFP, sorted GFP-negative population",1.9%
same,HIV expression (fraction of GFP positive cells and mean fluorescence intensity) in individual clones,[3]; individual HIV-R7/E-/GFP clones,HIV expression was increased in all clones
same,ability to reactivate latent HIV expression (GFP-positive cells and mean fluorescence intensity),[2],induced HIV expression
same,p24 (pg/ml),[4]; Clone 6.3,"10,100 ± 4,573 pg/ml"
same,p24 (pg/ml),[4]; Clone 8.4,"32,967 ± 10,537 pg/ml"
same,p24 (pg/ml),[4]; Clone 9.2,"41,067 ± 9,100 pg/ml"
same,p24 (pg/ml),[4]; Clone 10.6,"85,500 ± 5,981 pg/ml"
same,p24 (pg/ml),[4]; Clone 15.4,"6,066 ± 1,960 pg/ml"
same,increase in p24 measurement versus basal conditions,[4]; several representative clones,greater than a thousand-fold increase
same,HIV protein expression by western blotting,[5],dramatic increase in HIV protein expression
same,"HIV mRNA levels, activated versus basal conditions",[6],activation of HIV transcription

# — US7544467B2, “Method for the identification of compounds capable of activating latent human immunodeficiency virus (HIV)” (The J. David Gladstone Institutes, priority 2001, dated 2009)
